Measurements: patent US9371294B2, “Cycloalkenyl aryl derivatives for CETP inhibitor” (CHONG KUN DANG PHARMACEUTICAL CORP., priority 2011, dated 2016)

Columns and labels:
[1] = cited from earlier work
[2] = target: T1, cholesteryl ester transfer protein (Homo sapiens, UniProt P11597); test: In vitro test for the ability to inhibit cholesteryl ester transfer; format: biochemical; conditions: [3H]-cholesteryl oleate transfer from rHDL-agarose to LDL; human plasma as CETP source; 37° C.; 16-10000 nM, duplicate
T1 construct: As a source of cholesteryl ester transfer protein, plasma from healthy humans was used; from tissue; host or cells: plasma from healthy humans
T1 sequence (P11597 18-493): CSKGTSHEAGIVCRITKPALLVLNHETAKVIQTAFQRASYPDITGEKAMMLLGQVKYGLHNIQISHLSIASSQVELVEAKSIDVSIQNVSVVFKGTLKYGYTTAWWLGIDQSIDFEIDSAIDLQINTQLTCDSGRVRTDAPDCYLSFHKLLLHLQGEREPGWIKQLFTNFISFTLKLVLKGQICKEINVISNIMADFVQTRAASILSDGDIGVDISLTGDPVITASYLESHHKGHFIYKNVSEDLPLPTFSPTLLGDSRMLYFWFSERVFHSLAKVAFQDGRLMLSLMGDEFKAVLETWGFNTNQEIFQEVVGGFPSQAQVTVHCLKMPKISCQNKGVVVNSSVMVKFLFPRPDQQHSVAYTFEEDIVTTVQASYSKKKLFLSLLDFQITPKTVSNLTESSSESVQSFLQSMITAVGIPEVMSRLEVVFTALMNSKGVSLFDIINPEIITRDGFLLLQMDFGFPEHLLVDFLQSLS
Procedure, shortened: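 Human plasma served as the CETP source, with human LDL (0.25 mg/ml) as acceptor and agarose-immobilised recombinant HDL carrying [3H]-cholesteryl oleate (0.25 mg/ml) as donor, at 37 °C. Compounds were run in duplicate at 16–10000 nM. Transferred radioactivity in the supernatant was counted by beta detection, and IC50 was fitted from the fraction of label transferred to LDL.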

golden syrian hamsters = test: Test for anti-hyperlipidemia activity in hamsters (blood HDL-c levels); format: in vivo; conditions: male golden syrian hamsters; 3 mg/kg orally for 5 days; serum HDL-cholesterol 4 hours after last administration; vs vehicle control
Description: […] Test for Anti-Hyderlipidemia Activity in Hamsters
1. Experimental animals As test animals, 8-week-old male golden syrian hamsters were purchased and used in the experimental. The animal facility was kept at constant temperature and constant humidity with a 12-hr dark/12-hr light cycle, and the animals were allowed to access food and water ad libitum.
2. Experimental for Anti-Hyperlipidemia Activity in Hamsters
The test animals were used in the test after an acclimation of 1 week. The test animals were divided according to body weight into several groups, each consisting of 5-8 animals. 3 mg/kg of each test compound (CETP inhibitor) was administered orally to the animals. Each test compounds was suspended in a solvent vehicle that is a solution of 5% ethanol, 10% solutol and 85% deionized water (DW), to be used. Each of test compounds suspended in a solvent vehicle was administered orally to the […] for 5 days. To the control group, a solvent vehicle itself was administered. And then, after 4 hours from the last administration, blood was collected through the cardiac puncture. The collected blood was centrifuged at 3000 rpm for 15 minutes, and the concentration of HDL-cholesterol (Biosystem) in the separated serum was measured using a biochemical analyzer (ILab 300 plus, Instrumentation Laboratory).
3. Statistical Processing
All the results were expressed as mean±SEM, and each test group and the control group were compared using one-way ANOVA test (Dunnett's test, p<0.001) in order to determine the effect of each test group.

O=C(O)c1cccnc1 [Niacin]
side effects ([1]; relatively large doses): facial flushing

CCC(CC)CC1(C(=O)Nc2ccccc2SC(=O)C(C)C)CCCCC1 [Dalcetrapib]
rise in HDL-C ([1]; in vivo): insufficient rise in HDL-C

COc1cc(F)c(C(C)C(F)(F)F)cc1C1=C(CN2C(=O)O[C@H](c3cc(C(F)(F)F)cc(C(F)(F)F)c3)[C@@H]2C)CC(C)(C)CC1 (stereo partly drawn) [Compound 132, (4S,5R)-5-(3,5-bis(trifluoromethyl)phenyl)-3-((2-(4-fluoro-2-methoxy-5-(1,1,1-trifluoropropan-2-yl)phenyl)-5,5-dimethylcyclohex-1-enyl)methyl)-4-methyloxazolidin-2-one]
IC50 [2]: 50 nM | HDL-c Increase (%) (golden syrian hamsters): 33%

CCOC(=O)N1c2ccc(C(F)(F)F)cc2[C@@H](N(Cc2cc(C(F)(F)F)cc(C(F)(F)F)c2)C(=O)OC)C[C@H]1CC [Torcetrapib]
effect on blood pressure ([1]; clinical trials terminated): increases in blood pressure | effect on mortality ([1]; clinical trials terminated): increase in mortality | effect on hormone levels ([1]; hormones associated with elevation in blood pressure): increases the levels of hormones, such as aldosterone and cortisol | effect on vascular wall ([1]; in vivo): increases the thickness of the vascular wall to cause inflammation
